For 27 compounds, EC50 and activation results are on record in patent EP3789378A1, “PIPERIDINES OR PIPERIDONES SUBSTITUTED WITH UREA AND HETEROARYL” (Grünenthal GmbH, priority 2019, dated 2021).

Counter-ions that a name gives are not always drawn.

One experiment has as its target T1, h FPR2 (Homo sapiens, UniProt P25090).
T1 construct: expressed in transfected cells
T1 sequence (P25090 1-351): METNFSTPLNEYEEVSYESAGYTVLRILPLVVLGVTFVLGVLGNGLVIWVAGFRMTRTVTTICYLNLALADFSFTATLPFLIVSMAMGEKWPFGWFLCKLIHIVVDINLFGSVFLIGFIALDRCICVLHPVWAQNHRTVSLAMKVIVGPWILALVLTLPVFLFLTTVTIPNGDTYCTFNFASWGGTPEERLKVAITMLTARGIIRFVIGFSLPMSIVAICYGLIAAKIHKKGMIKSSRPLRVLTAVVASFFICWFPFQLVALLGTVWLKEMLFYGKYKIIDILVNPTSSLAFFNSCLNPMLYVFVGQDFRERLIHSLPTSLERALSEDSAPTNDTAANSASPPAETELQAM
Nature of the experiment: Agonistic activity in hFPR2-Aq-CHO cells (FLIPR Calcium 5 fluorescence assay). It counts as cell-based. Particulars: 11 point half log dilution, final assay concentration from 10µM. The method, boiled down: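 EC50 reflects the compound-evoked rise in Calcium 5 fluorescence over basal, recorded for 5 min on FLIPR and compared with no-compound wells. Dye-loaded hFPR2-Aq-CHO cells received half-log dilutions from 10 µM to 100 pM final in pH 7.4 HBSS buffer.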
`O=C(Nc1ccc(Cl)cc1)N[C@@H]1CCN(CC2CCOCC2)C[C@H]1c1ccc(Cl)s1` (single isomer, unassigned) [Ex-85, trans-1-(4-chlorophenyl)-3-(3-(5-chlorothiophen-2-yl)-1-((tetrahydro-2H-pyran-4-yl)methyl)piperidin-4-yl)urea]: the EC50 was 14 nM. Consider `COc1ccc([C@@H]2CN(Cc3cnn(C)c3)CC[C@H]2NC(=O)Nc2ccc(Cl)cc2)nc1` (relative stereo) [Ex-145, trans-1-(4-Chlorophenyl)-3-[3-(5-methoxy-pyridin-2-yl)-1-[(1-methyl-1H-pyrazol-4-yl)-methyl]-piperidin-4-yl]-urea], for which the EC50 is 0.3 nM.

Regarding `COc1ccc([C@@H]2CN(Cc3ccc(C)nc3)CC[C@H]2NC(=O)Nc2ccc(Cl)cc2)nc1` (relative stereo) [Ex-67, trans-1-(4-chlorophenyl)-3-[-3-(5-methoxypyridin-2-yl)-1-[(6-methylpyridin-3-yl)methyl]piperidin-4-yl]urea], the EC50 came to 0.08 nM. As for `COCCCN1CC[C@@H](NC(=O)Nc2ccc(Cl)cc2)[C@H](c2ccc(OC)cn2)C1` (racemic) [Ex-80, trans-1-(4-chloro-phenyl)-3-[5-methoxy-1'-(3-methoxy-propyl)-1',2',3',4',5',6'-hexahydro-[2,3']bipyridinyl-4'-yl]-urea], the EC50 amounted to 0.9 nM. As for `CNCCC(=O)N1CC[C@@H](NC(=O)Nc2cc(C)ns2)[C@H](c2ccc(OC)cn2)C1` (relative stereo) [Ex-135, trans-1-[3-(5-Methoxy-pyridin-2-yl)-1-(3-methylamino-propanoyl)-piperidin-4-yl]-3-(3-methyl-isothiazol-5-yl)-urea], the EC50 turned out to be 17 nM. As for `COc1ccc([C@@H]2CN(C(=O)c3cnccc3C)CC[C@H]2NC(=O)Nc2ccc(Cl)cc2)nc1` (single isomer, unassigned) [Ex-52, trans-1-(4-chlorophenyl)-3-[3-(5-methoxypyridin-2-yl)-1-[(4-methylpyridin-3-yl)carbonyl]piperidin-4-yl]urea], the EC50 was 0.5 nM.

As to `COc1ccc([C@@H]2CN(CC3CC3)CC[C@H]2NC(=O)Nc2ccc(Cl)cc2)nc1` (single isomer, unassigned) [Ex-172, trans-1-(4-Chlorophenyl)-3-[1-(cyclopropyl-methyl)-3-(5-methoxy-pyridin-2-yl)-piperidin-4-yl]-urea], the EC50 was 0.18 nM. Same read-out and setting: the value for `COc1ccc([C@@H]2CN(CC3CC(C)(O)C3)CC[C@H]2NC(=O)Nc2ccc(Cl)cc2)nc1` (relative stereo) [Ex-207, trans-1-(4-chloro-phenyl)-3-[1'-(3-hydroxy-3-methyl-cyclobutylmethyl)-5-methoxy-1',2',3',4',5',6'-hexahydro-[2,3']bipyridinyl-4'-yl]-urea] was 9 nM.

In the case of `COc1ccc([C@@H]2CN(CC(C)(C)O)CC[C@H]2NC(=O)Nc2ccc(Cl)cc2)nc1` (single isomer, unassigned) [Ex-179, trans-1-(4-Chlorophenyl)-3-[1-(2-hydroxy-2-methyl-propyl)-3-(5-methoxy-pyridin-2-yl)-piperidin-4-yl]-urea], the concentration giving a half-maximal response (EC50) stood at 0.7 nM. The same measure, in the same setting: the same measure for `COc1ccc([C@@H]2CN(CC(C)(C)O)CC[C@H]2NC(=O)Nc2cc(C)ns2)nc1` (single isomer, unassigned) [Ex-177, trans-1-[1-(2-Hydroxy-2-methyl-propyl)-3-(5-methoxy-pyridin-2-yl)-piperidin-4-yl]-3-(3-methyl-isothiazol-5-yl)-urea]: 1.4 nM; for `O=C(Nc1ccc(Cl)cc1)N[C@@H]1CCN(Cc2cncc(Cl)c2)C[C@H]1c1ccc(Cl)s1` (relative stereo) [Ex-71, trans-1-(4-chlorophenyl)-3-(1-((5-chloropyridin-3-yl)methyl)-3-(5-chlorothiophen-2-yl)piperidin-4-yl)urea]: 2 nM; for `O=C(Nc1ccc(Cl)cc1)N[C@@H]1CCN(Cc2cncc(F)c2)C[C@H]1c1ccc(Cl)s1` (relative stereo) [Ex-70, trans-1-(4-chlorophenyl)-3-(3-(5-chlorothiophen-2-yl)-1-((5-fluoropyridin-3-yl)methyl)piperidin-4-yl)urea]: 2 nM. On to `COc1ccc([C@@H]2CN(C(=O)C3CC(O)C3)CC[C@H]2NC(=O)Nc2cc(C)ns2)nc1` (single isomer, unassigned) [Ex-183, trans-1-[1'-(3-hydroxy-cyclobutanecarbonyl)-5-methoxy-1',2',3',4',5',6'-hexahydro-[2,3']bipyridinyl-4'-yl]-3-(3-methyl-isothiazol-5-yl)-urea], for which the EC50 came out at 89 nM.

As for `O=C(Nc1ccc(Cl)cc1)N[C@@H]1CCN(CC2CCNCC2)C[C@H]1c1ccc(Cl)s1` (single isomer, unassigned) [Ex-84, trans-1-(4-chlorophenyl)-3-[3-(5-chlorothiophen-2-yl)-1-(piperidin-4-ylmethyl)piperidin-4-yl]urea dihydrochloride], the EC50 is 33 nM. Take `COc1cnc([C@@H]2CN(CC(N)=O)CC[C@H]2NC(=O)Nc2ccc(Cl)cc2)c(F)c1` (relative stereo) [Ex-222, trans-2-{4'-[3-(4-chlorophenyl)-ureido]-3-fluoro-5-methoxy-3',4',5',6'-tetrahydro-2'H-[2,3']bipyridinyl-1'-yl}-acetamide]: the EC50 was 0.3 nM. For `COc1ccc([C@@H]2CN(CC(F)F)CC[C@H]2NC(=O)Nc2ccccc2)nc1` (relative stereo) [Ex-150, trans-1-[1-(2,2-Difluoro-ethyl)-3-(5-methoxy-pyridin-2-yl)-piperidin-4-yl]-3-phenyl-urea], the EC50 turned out to be 3 nM.

Regarding `Cc1cc(NC(=O)N[C@@H]2CCN(c3ccnc(C)n3)C[C@H]2c2ccc(Cl)cn2)sn1` (relative stereo) [Ex-21, trans-1-[5-chloro-1'-(2-methyl-pyrimidin-4-yl)-1',2',3',4',5',6'-hexahydro-[2,3']bipyridinyl-4'-yl]-3-(3-methyl-isothiazol-5-yl)-urea], the EC50 was 7 nM. On to `COc1ccc([C@@H]2CN(Cc3cnn(S(C)(=O)=O)c3)CC[C@H]2NC(=O)Nc2ccc(Cl)cc2)nc1` (relative stereo) [Ex-125, trans-1-(4-Chlorophenyl)-3-[3-(5-methoxy-pyridin-2-yl)-1-[(1-methylsulfonyl-1H-pyrazol-4-yl)-methyl]-piperidin-4-yl]-urea], for which the EC50 stood at 0.09 nM. Turning to `COc1ccc([C@@H]2CN(Cc3cnc(OC)nc3)CC[C@H]2NC(=O)Nc2ccc(Cl)cc2)nc1` (relative stereo) [Ex-66, trans-1-(4-chlorophenyl)-3-[3-(5-methoxypyridin-2-yl)-1-[(2-methoxypyrimidin-5-yl)methyl]piperidin-4-yl]urea], the EC50 stood at 0.2 nM. On to `Cc1cc(NC(=O)N[C@@H]2CCN(c3cnccn3)C[C@H]2c2ccc(Cl)cn2)sn1` (relative stereo) [Ex-19, trans-1-(5-chloro-1'-pyrazin-2-yl-1',2',3',4',5',6'-hexahydro-[2,3']bipyridinyl-4'-yl)-3-(3-methyl-isothiazol-5-yl)-urea], for which the EC50 turned out to be 0.8 nM.

Consider `COc1ccc([C@@H]2CN(c3ccc(F)cc3)C(=O)C[C@H]2NC(=O)Nc2ccc(Cl)cc2)cn1` (relative stereo) [Ex-5, trans-1-(4-chlorophenyl)-3-[-1-(4-fluorophenyl)-5-(6-methoxypyridin-3-yl)-2-oxopiperidin-4-yl]urea], for which the EC50 came to 0.16 nM. As to `COc1ccc([C@@H]2CN(C(=O)C3CC(O)C3)CC[C@H]2NC(=O)Nc2cc(C)ns2)nc1` (single isomer, unassigned) [Ex-138, trans-1-[1-(3-Hydroxy-cyclobutanecarbonyl)-3-(5-methoxy-pyridin-2-yl)-piperidin-4-yl]-3-(3-methyl-isothiazol-5-yl)-urea], the EC50 was found to be 7 nM.

Turning to `COc1ccc([C@@H]2CN(Cc3ccn(S(C)(=O)=O)n3)CC[C@H]2NC(=O)Nc2ccc(Cl)cc2)nc1` (single isomer, unassigned) [Ex-43, trans-1-(4-chlorophenyl)-3-[1-[(1-methanesulfonyl-1H-pyrazol-3-yl)methyl]-3-(5-methoxypyridin-2-yl)piperidin-4-yl]urea], the EC50 turned out to be 0.03 nM.

Regarding `COc1ccc([C@@H]2CN(c3ccnc(C)n3)CC[C@H]2NC(=O)Nc2ccc(Cl)cc2)nc1` (relative stereo) [Ex-210, trans-1-(4-chloro-phenyl)-3-[5-methoxy-1'-(2-methyl-pyrimidin-4-yl)-1',2',3',4',5',6'-hexahydro-[2,3']bipyridinyl-4'-yl]-urea], the EC50 turned out to be 5 nM.

Turning to `COc1cnc([C@@H]2CN(CC3CCC(O)CC3)CC[C@H]2NC(=O)Nc2ccc(Cl)cc2)c(F)c1` (relative stereo) [Ex-221, trans-1-(4-chloro-phenyl)-3-[3-fluoro-1'-(4-hydroxy-cyclohexylmethyl)-5-methoxy-1',2',3',4',5',6'-hexahydro-[2,3']bipyridinyl-4'-yl]-urea], the EC50 was 0.9 nM.

The experiment is the same for the next values; noted with them: agonistic response at 0.1µM.
Regarding `COc1ccc([C@@H]2CN(C(=O)c3cnccc3C(F)(F)F)CC[C@H]2NC(=O)Nc2ccc(Cl)cc2)nc1` (relative stereo) [Ex-98, trans-1-(4-chlorophenyl)-3-[3-(5-methoxypyridin-2-yl)-1-{[4-(trifluoromethyl)pyridin-3-yl]carbonyl}piperidin-4-yl]urea], the activation at 0.1 µM was determined as 26%. Still for that read-out and setting: the same measure for `COc1ccc([C@@H]2CN(C3CCS(=O)(=O)CC3)CC[C@H]2NC(=O)Nc2cc(C)ns2)nc1` (relative stereo) [Ex-149, trans-1-[1-(1,1-Dioxo-thian-4-yl)-3-(5-methoxy-pyridin-2-yl)-piperidin-4-yl]-3-(3-methyl-isothiazol-5-yl)-urea]: 25%.

Broadly, the EC50 is the concentration needed to bring the measured effect to its halfway point.
